Reference: PMC8112869, “Therapeutic inhibition of keratinocyte TRPV3 sensory channel by local anesthetic dyclonine” (eLife, 2021)

Legend:
TRPV3 = target: T1, TRPV3 (Mus musculus, UniProt Q8K424); test: Whole-cell recording of carvacrol-evoked TRPV3 currents in HEK 293T cells; format: cell-based
T1 construct: expressed in transfected cells; host or cells: HEK 293T
T1 sequence (Q8K424 1-791): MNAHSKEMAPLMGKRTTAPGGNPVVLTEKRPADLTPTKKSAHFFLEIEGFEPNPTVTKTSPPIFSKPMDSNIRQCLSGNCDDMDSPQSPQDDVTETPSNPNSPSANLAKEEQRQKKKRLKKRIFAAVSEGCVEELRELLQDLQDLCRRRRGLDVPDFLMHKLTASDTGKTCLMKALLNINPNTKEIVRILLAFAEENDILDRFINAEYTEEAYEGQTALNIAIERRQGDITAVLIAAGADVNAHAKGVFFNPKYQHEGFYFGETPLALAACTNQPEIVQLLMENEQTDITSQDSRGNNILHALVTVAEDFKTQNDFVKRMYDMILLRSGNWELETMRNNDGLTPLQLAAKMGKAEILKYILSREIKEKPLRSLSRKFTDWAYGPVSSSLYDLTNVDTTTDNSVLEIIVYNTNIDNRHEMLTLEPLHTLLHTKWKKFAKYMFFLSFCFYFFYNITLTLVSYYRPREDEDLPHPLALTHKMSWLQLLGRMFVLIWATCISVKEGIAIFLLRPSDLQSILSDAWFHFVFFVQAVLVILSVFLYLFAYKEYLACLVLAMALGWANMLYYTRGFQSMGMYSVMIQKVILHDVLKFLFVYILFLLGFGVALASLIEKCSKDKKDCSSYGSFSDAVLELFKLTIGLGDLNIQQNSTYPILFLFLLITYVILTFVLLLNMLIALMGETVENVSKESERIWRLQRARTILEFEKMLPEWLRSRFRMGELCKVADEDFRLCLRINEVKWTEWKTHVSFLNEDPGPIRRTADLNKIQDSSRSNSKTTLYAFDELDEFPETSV
Text: Conventional whole-cell and excised patch-clamp recording methods were used. For the recombinant expressing system, green fluorescent EGFP was used as a surface marker for gene expression. Recording pipettes were pulled from borosilicate glass capillaries (World Precision Instruments) and fire-polished to a resistance between 2 and 4 MΩ when filled with internal solution containing (in mM) 140 CsCl, 2.0 MgCl2, 5 EGTA, and 10 HEPES, pH 7.4 (adjusted with CsOH). Bath solution contained (in mM): 140 NaCl, 5 KCl, 3 EGTA, and 10 HEPES, pH 7.4 adjusted with NaOH. For recordings in keratinocytes, the bath saline consisted of (in mM) 140 NaCl, 5 KCl, 2 MgCl2, 2 CaCl2, 10 glucoses, and 10 HEPES, pH 7.4 adjusted with NaOH, and the pipette solution contained (in mM) 140 CsCl, 5 EGTA, and 10 HEPES, pH 7.3 adjusted with CsOH. […] For a subset of recordings, currents were amplified using an Axopatch 200B amplifier (Molecular Devices, Sunnyvale, CA) and recorded through a BNC-2090/MIO acquisition system (National Instruments, Austin, TX) using QStudio developed by Dr. Feng Qin at State University of New York at Buffalo. […] As determined by the conductance tests, the solution around a patch under study was fully controlled by the application of a flow rate of 100 μl/min or greater. […]

[1] = tested on: mouse dorsal root ganglia (DRG) and trigeminal ganglia (TG) neurons; test: Current-clamp recording of mouse DRG and TG neurons; format: cell-based; conditions: dyclonine 10 μM

Hill coefficient nH (TRPV3; carvacrol-evoked): 2.1 ± 0.41
Compound: CCCCOc1ccc(C(=O)CCN2CCCCC2)cc1 [dyclonine]
IC50 (TRPV3; 500 μM carvacrol, after sensitization by 300 μM 2-APB, –60 mV, read-out: IC50 for inhibition of carvacrol-evoked TRPV3 currents): 3.5 ± 0.34 µM | effect on electrophysiological responses ([1]; DRG and TG neurons): little effect | resting membrane potential (RMP) ([1]; DRG neurons): –45 ± 0.9 mV | resting membrane potential (RMP) ([1]; TG neurons): –47.2 ± 1.9 mV
